Test results published in US20260201008A1, “SECRETIN-DERIVED GLP1R SELECTIVE AGONISTS” (GUBRA A/S, priority 2023, published 2026).
Numbered stars: 1 amine (or outer) side, 2 acyl side, 3 side chain; on linkers, the order of the positions; unused ones are H or OH. Square brackets hold non-standard residues; d marks the D form. Side chains are listed from the residue outwards. Peptide text beside a SMILES is read from it. * marks the point of attachment. C20 diacid = O=C(O)CCCCCCCCCCCCCCCCCCC(=O)*; γGlu = O=C(O)[C@H](CCC(=O)[*:2])N[*:1]; AEEA = NCCOCCOCC(=O)O; Aib = CC(C)(N)C(=O)O

How the values were obtained:
SCTR = SCTR (Homo sapiens, UniProt P47872); experiment: hSCTR potency, cAMP accumulation in CHO-K1 cells stably overexpressing hSCTR; format: cell-based; design: alternatively Euroscreen ES-712-AF; FAST-0161L; host or cells: CHO-K1; details: cAMP accumulation, CHO-K1 cells overexpressing hSCTR; read-out: pEC50 hSCTR (converted)
How it was run: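 Division-arrested CHO-K1 cells stably expressing hSCTR were plated in DPBS with 0.05% casein and 0.5 mM IBMX, then stimulated with test peptide for 30 min at room temperature. cAMP was read by HTRF after one hour. EC50 came from variable-slope sigmoidal nonlinear regression.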

GLP1R = GLP1R (Homo sapiens, UniProt P43220); experiment: hGLP1R potency, cAMP accumulation in CHO-K1 cells stably overexpressing hGLP1R; format: cell-based; design: host or cells: CHO-K1; details: for Selectivity: SCTR EC50/GLP1R EC50 ratio; for EC50: cAMP accumulation, CHO-K1 cells overexpressing hGLP1R, read-out: pEC50 hGLPR1 (converted)
How it was run: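 Cells were plated in DPBS with 0.05% casein and 0.5 mM IBMX, then stimulated for 30 min at room temperature with test compound. cAMP was read by TR-FRET after one hour. EC50 came from variable-slope sigmoid nonlinear regression; purified peptides ran as 11-point 3-fold series, n=2.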

[1] = Fibril formation of crude library peptides (Thioflavin T); format: physicochemical; design: key: average ThT fluorescence emission at 480 nm (ex 450 nm), raw units; details: Physical stability of peptides
How it was run: (§1)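 Values reflect mean ThT emission (ex 450, em 480 nm) over 72 h at 40° C, read every 10 min after 5 min shaking at 700 rpm, plus a single initial absorbance at 600 nm for turbidity. Peptides were at 267 μM, pH 4.0 acetate or pH 7.0 phosphate (50 mM), with 4 μM ThT.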

[2] = Turbidity of crude library peptides (absorbance at 600 nm); format: physicochemical; details: Physical stability of peptides
How it was run: as §1

Chain of GLP1R (P43220 24-463): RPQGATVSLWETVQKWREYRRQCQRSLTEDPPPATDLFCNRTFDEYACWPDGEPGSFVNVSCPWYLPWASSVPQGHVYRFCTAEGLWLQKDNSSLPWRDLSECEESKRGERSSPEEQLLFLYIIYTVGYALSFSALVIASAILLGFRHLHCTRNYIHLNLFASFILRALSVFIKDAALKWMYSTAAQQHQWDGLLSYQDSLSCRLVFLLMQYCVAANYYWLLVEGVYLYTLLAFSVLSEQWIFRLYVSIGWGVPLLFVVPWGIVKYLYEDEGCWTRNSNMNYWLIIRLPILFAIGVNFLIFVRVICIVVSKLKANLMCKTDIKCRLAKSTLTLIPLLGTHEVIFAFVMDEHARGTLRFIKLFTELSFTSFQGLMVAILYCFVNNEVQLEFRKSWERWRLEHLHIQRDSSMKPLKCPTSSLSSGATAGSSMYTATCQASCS
Chain of SCTR (P47872 23-440): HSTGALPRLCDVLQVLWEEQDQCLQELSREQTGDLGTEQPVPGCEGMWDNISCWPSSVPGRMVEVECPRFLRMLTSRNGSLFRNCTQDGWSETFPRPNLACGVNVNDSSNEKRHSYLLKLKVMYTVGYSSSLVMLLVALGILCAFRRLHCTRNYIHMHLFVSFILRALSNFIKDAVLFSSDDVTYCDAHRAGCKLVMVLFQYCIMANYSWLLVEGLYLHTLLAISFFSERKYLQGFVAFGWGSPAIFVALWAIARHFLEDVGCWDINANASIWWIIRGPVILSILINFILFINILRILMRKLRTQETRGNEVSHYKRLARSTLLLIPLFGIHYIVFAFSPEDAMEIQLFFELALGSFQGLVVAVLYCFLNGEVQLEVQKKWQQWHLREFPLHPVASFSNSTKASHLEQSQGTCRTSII

EC50 (SCTR) | Selectivity (GLP1R) | EC50 (GLP1R) | Fibril formation [1] | Turbidity (pH 7) [2] | Structure (SMILES)
3980 nM | 67329 | 0.0501 nM | 16732 | 0.08 | CC(C)C[C@H](NC(=O)[C@H](Cc1ccccc1)NC(=O)[C@H](CCCNC(=N)N)NC(=O)[C@H](CCC(N)=O)NC(=O)C(C)(C)NC(=O)[C@H](C)NC(=O)[C@H](C)NC(=O)[C@H](Cc1ccccc1)NC(=O)[C@H](CCC(=O)O)NC(=O)[C@H](CCCCNC(=O)COCCOCCNC(=O)COCCOCCNC(=O)CC[C@H](NC(=O)CCCCCCCCCCCCCCCCCCC(=O)O)C(=O)O)NC(=O)[C@H](CC(C)C)NC(=O)[C@H](Cc1ccc(O)cc1)NC(=O)[C@H](CO)NC(=O)[C@@H](NC(=O)[C@H](CC(=O)O)NC(=O)[C@H](CO)NC(=O)[C@@H](NC(=O)[C@H](Cc1ccccc1)NC(=O)[C@@H](NC(=O)CNC(=O)[C@H](CCC(=O)O)NC(=O)C(C)(C)NC(=O)[C@@H](N)Cc1c[nH]cn1)[C@@H](C)O)[C@@H](C)O)C(C)C)C(=O)N[C@@H](CCC(=O)O)C(=O)N[C@@H](Cc1c[nH]cn1)C(=O)N[C@@H](CC(C)C)C(=O)N[C@H](C(N)=O)C(C)C [compound 46] (H-H[Aib]EGTFTSDVSYLK([AEEA-AEEA-γGlu-C20 diacid])EFAA[Aib]QRFLEHLV-NH2)
251 nM | 17543 | 0.0158 nM | 13638 | 0.08 | CC(C)C[C@H](NC(=O)[C@H](Cc1ccccc1)NC(=O)[C@H](CCCNC(=N)N)NC(=O)[C@H](CCC(N)=O)NC(=O)[C@H](CCC(N)=O)NC(=O)[C@H](C)NC(=O)[C@H](C)NC(=O)[C@H](CCC(=O)O)NC(=O)[C@H](CCC(=O)O)NC(=O)[C@H](CCCCNC(=O)COCCOCCNC(=O)COCCOCCNC(=O)CC[C@H](NC(=O)CCCCCCCCCCCCCCCCCCC(=O)O)C(=O)O)NC(=O)[C@H](CC(C)C)NC(=O)[C@H](Cc1ccc(O)cc1)NC(=O)[C@H](CO)NC(=O)[C@@H](NC(=O)[C@H](CC(=O)O)NC(=O)[C@H](CO)NC(=O)[C@@H](NC(=O)[C@H](Cc1ccccc1)NC(=O)[C@@H](NC(=O)CNC(=O)[C@H](CCC(=O)O)NC(=O)C(C)(C)NC(=O)[C@@H](N)Cc1c[nH]cn1)[C@@H](C)O)[C@@H](C)O)C(C)C)C(=O)N[C@@H](CCC(=O)O)C(=O)N[C@@H](Cc1c[nH]cn1)C(=O)N[C@@H](CC(C)C)C(=O)N[C@H](C(N)=O)C(C)C [compound 47] (H-H[Aib]EGTFTSDVSYLK([AEEA-AEEA-γGlu-C20 diacid])EEAAQQRFLEHLV-NH2)
126 nM | 5236 | 0.0251 nM | 16290 | 0.08 | CC(C)C[C@H](NC(=O)[C@H](Cc1ccccc1)NC(=O)[C@H](CCCNC(=N)N)NC(=O)[C@H](CCC(N)=O)NC(=O)[C@@H](NC(=O)[C@H](C)NC(=O)[C@H](C)NC(=O)C(C)(C)NC(=O)[C@H](CCC(=O)O)NC(=O)[C@H](CCCCNC(=O)COCCOCCNC(=O)COCCOCCNC(=O)CC[C@H](NC(=O)CCCCCCCCCCCCCCCCCCC(=O)O)C(=O)O)NC(=O)[C@H](CC(C)C)NC(=O)[C@H](Cc1ccc(O)cc1)NC(=O)[C@H](CO)NC(=O)[C@@H](NC(=O)[C@H](CC(=O)O)NC(=O)[C@H](CO)NC(=O)[C@@H](NC(=O)[C@H](Cc1ccccc1)NC(=O)[C@@H](NC(=O)CNC(=O)[C@H](CCC(=O)O)NC(=O)C(C)(C)NC(=O)[C@@H](N)Cc1c[nH]cn1)[C@@H](C)O)[C@@H](C)O)C(C)C)[C@@H](C)O)C(=O)N[C@@H](CCC(=O)O)C(=O)N[C@@H](Cc1c[nH]cn1)C(=O)N[C@@H](CC(C)C)C(=O)N[C@H](C(N)=O)C(C)C [compound 48] (H-H[Aib]EGTFTSDVSYLK([AEEA-AEEA-γGlu-C20 diacid])E[Aib]AATQRFLEHLV-NH2)
